This assay addresses T1, MAP4K3 (Homo sapiens, UniProt Q8IVH8).
T1 sequence (Q8IVH8 1-894): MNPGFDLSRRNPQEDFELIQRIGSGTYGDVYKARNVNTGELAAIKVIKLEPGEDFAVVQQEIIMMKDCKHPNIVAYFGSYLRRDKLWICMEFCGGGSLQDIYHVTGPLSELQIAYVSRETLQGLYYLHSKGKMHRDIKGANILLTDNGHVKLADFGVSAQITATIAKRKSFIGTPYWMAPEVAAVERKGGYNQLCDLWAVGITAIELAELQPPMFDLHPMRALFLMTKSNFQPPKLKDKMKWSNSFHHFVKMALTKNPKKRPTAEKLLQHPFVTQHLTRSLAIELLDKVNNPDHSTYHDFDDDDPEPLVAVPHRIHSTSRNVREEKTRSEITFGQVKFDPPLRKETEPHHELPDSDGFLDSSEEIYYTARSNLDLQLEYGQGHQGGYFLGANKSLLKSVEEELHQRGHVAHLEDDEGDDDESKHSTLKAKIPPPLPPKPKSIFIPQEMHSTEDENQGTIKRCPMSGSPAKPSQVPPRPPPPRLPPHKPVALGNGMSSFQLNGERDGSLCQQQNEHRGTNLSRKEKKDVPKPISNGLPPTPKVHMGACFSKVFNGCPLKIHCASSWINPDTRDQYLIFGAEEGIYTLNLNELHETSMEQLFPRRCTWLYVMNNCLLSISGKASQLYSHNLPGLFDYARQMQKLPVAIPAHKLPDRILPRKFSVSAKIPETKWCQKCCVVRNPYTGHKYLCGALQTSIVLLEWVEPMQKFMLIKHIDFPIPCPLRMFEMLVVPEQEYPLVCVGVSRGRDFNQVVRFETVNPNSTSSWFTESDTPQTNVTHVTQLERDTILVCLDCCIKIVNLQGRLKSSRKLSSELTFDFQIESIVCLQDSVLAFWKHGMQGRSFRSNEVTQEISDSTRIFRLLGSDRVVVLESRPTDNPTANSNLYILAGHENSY
Nature of the assay: Kinase specificity assay (33P phosphoryl transfer, LCCA or AlphaScreen). It is filed as biochemical. To be noted: ATP close to KM; read-out: MAP4K3 inhibition, IC50. (In general: In Alpha technology, singlet oxygen from a donor bead excites a nearby acceptor bead.)

Molecules are shown by their SMILES. Bounds are passed on as bounds.

`NC(=O)c1nc(-c2cccc3ccccc23)cnc1N` [Example 2, 3-Amino-6-naphthalen-1-ylpyrazine-2-carboxamide]: the IC50 (in general, the concentration that gives 50% inhibition) is below 50 nM.

These data come from patent US7704995B2 (Exelixis, Inc., priority 2003, dated 2010).
